The assay deals with Vaccinia virus. The assay can be described thus: Antiviral activity against Vaccinia virus in E6SM cells assessed as reduction of virus-induced cytopathogenicity. The assay is classed as functional, organism-based. The conditions noted are these: Orthopoxvirus vaccinia. (In general: Damage to the host cells serves as the signal in cytopathic effect assays.)

In brackets after ≈: the same amount, converted by molar mass. Where only a bound is given, the exact number is not on record here.

Usually EC50 stands for the concentration needed to bring the measured effect to its halfway point. As to `C#Cc1cn([C@H]2C[C@H](O)[C@@H](CO)O2)c(=O)[nH]c1=O`, the EC50 amounted to 0.1 µg/mL (≈ 0.396 µM).

As to `C[Si](C)(C)C#Cc1cn([C@H]2C[C@H](O)[C@@H](CO)O2)c(=O)[nH]c1=O`, the 50% effective concentration (EC50) stood at 0.2 µg/mL (≈ 0.617 µM).

As for `CC(=O)OC[C@H]1O[C@@H](n2cc(C#CI)c(=O)[nH]c2=O)[C@@H](OC(C)=O)[C@@H]1OC(C)=O`, the EC50 is greater than 10 µg/mL.

For the molecule `O=c1[nH]c(=O)n([C@H]2C[C@H](O)[C@@H](CO)O2)cc1C#CI`, the EC50 is 0.2 µg/mL (≈ 0.529 µM).

In the case of `C[Si](C)(C)C#Cc1cn([C@@H]2O[C@H](CO)[C@@H](O)[C@@H]2O)c(=O)[nH]c1=O`, the 50% effective concentration (EC50) was 7 µg/mL (≈ 20.6 µM).

As for `Nc1nc2c(ncn2COCCO)c(=O)[nH]1` [ACYCLOVIR], the EC50 is greater than 400 µg/mL.

For `O=c1[nH]c(=O)n([C@H]2C[C@H](O)[C@@H](CO)O2)cc1/C=C/Br` [BRIVUDINE], the EC50 turned out to be 0.2 µg/mL (≈ 0.6 µM).

With `Nc1nc2c(ncn2COC(CO)CO)c(=O)[nH]1` [GANCICLOVIR], the EC50 is greater than 100 µg/mL.

On to `NC(=O)c1ncn([C@@H]2O[C@H](CO)[C@@H](O)[C@H]2O)n1` [RIBAVIRIN], for which the EC50 was found to be 20 µg/mL (≈ 81.9 µM).

Source of the values: ChEMBL document CHEMBL1143708, “5-alkynyl analogs of arabinouridine and 2'-deoxyuridine: cytostatic activity against herpes simplex virus and varicella-zoster thymidine kinase gene-transfected cells” (J Med Chem, 2007).
